Measured values published in ChEMBL document CHEMBL1759865, “Synthesis, biological assessment and molecular modeling of 14-aryl-10,11,12,14-tetrahydro-9H-benzo[5,6]chromeno[2,3-b]quinolin-13-amines” (Bioorg Med Chem Lett, 2011).
The source made the active and inactive calls. No cut-off for these calls is given here.

Assays:
[1] = Inhibition of […]-induced intracellular Ca2+ uptake in bovine Chromaffin cells at 100 uM; type: functional; settings: Bos taurus
SH-SY5Y = experiment: Neuroprotective activity in human SH-SY5Y cells by MTT assay; type: functional
Bos taurus = organism: Bos taurus; experiment: Inhibition of K(+)-induced intracellular Ca2+ uptake in bovine Chromaffin cells at 100 uM; type: functional, cell-based
Acetylcholinesterase [2] = target: T1, Acetylcholinesterase (Electrophorus electricus, UniProt O42275)
Description: Inhibition of Electrophorus electricus acetylcholinesterase preincubated with compound for 10 mins using acetylcholine iodide as substrate after 15 mins by spectrophotometric analysis

Cholinesterase = Cholinesterase (Equus caballus, UniProt P81908)
Description: Inhibition of horse serum butyrylcholinesterase preincubated with compound for 10 mins using butrylcholine iodide as substrate after 15 mins by spectrophotometric analysis

[3] = target: Acetylcholinesterase (Electrophorus electricus) (UniProt O42275); experiment: Ratio of compound IC50 to tacrine IC50 for Electrophorus electricus acetylcholinesterase
Acetylcholinesterase [4] = target: T1, Acetylcholinesterase; experiment: Mixed inhibition of Electrophorus electricus acetylcholinesterase using […] substrate by Ellman's method
[5] = target: T2, Acetylcholinesterase (Bos taurus) (UniProt P23795); experiment: Displacement of propidium iodide from peripheral anionic site of bovine erythrocyte AChE at 0.1 to 3 uM after 20 hrs by fluorescence plate reader
T2 sequence (whole entry): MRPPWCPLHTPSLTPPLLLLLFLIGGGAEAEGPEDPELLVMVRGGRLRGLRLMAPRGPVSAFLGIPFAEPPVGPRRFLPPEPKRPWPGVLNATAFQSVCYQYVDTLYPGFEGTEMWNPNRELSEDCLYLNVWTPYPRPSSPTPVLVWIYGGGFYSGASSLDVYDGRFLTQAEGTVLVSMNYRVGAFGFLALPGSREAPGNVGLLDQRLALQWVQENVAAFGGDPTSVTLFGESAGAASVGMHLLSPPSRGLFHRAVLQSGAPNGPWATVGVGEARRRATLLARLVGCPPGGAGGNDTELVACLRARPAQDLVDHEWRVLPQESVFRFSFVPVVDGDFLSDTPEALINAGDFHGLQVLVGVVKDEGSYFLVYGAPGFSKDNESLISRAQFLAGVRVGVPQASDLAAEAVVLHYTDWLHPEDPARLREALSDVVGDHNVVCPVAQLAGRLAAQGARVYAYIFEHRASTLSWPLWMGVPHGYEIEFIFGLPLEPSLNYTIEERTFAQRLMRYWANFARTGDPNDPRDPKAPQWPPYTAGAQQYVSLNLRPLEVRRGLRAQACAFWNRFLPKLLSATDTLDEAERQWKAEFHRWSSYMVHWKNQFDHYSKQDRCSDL

Cholinesterase, sequence (P81908 whole entry): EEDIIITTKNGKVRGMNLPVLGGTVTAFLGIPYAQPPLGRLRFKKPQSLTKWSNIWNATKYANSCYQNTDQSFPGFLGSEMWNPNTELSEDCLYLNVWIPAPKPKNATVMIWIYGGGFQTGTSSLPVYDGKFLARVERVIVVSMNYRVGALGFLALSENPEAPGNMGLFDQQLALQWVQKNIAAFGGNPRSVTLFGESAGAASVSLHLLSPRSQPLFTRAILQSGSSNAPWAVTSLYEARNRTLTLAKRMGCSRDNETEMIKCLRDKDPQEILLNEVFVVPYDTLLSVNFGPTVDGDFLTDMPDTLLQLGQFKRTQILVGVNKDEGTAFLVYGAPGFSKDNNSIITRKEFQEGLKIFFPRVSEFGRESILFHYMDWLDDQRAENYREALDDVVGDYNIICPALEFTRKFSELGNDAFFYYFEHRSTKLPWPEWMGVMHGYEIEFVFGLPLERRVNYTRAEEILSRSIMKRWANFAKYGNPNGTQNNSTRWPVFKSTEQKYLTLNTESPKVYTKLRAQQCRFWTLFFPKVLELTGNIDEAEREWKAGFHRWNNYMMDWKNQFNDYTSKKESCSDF
T1 sequence (O42275 whole entry): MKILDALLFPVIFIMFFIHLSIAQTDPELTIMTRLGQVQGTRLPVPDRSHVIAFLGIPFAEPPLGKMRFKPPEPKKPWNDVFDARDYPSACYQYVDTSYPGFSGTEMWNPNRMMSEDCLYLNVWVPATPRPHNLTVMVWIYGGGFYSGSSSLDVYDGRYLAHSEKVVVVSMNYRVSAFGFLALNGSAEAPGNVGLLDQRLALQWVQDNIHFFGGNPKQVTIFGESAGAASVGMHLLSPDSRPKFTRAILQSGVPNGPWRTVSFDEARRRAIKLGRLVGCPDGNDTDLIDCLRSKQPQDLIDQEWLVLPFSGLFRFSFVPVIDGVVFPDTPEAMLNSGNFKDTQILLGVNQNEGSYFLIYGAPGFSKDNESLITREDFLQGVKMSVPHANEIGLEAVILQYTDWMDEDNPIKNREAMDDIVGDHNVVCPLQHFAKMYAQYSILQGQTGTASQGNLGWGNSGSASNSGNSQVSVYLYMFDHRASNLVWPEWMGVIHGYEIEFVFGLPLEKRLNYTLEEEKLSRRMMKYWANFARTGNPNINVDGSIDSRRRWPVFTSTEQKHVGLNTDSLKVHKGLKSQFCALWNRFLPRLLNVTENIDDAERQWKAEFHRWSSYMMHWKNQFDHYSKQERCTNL
Acetylcholinesterase (Electrophorus electricus), sequence (O42275 24-633 limits assumed): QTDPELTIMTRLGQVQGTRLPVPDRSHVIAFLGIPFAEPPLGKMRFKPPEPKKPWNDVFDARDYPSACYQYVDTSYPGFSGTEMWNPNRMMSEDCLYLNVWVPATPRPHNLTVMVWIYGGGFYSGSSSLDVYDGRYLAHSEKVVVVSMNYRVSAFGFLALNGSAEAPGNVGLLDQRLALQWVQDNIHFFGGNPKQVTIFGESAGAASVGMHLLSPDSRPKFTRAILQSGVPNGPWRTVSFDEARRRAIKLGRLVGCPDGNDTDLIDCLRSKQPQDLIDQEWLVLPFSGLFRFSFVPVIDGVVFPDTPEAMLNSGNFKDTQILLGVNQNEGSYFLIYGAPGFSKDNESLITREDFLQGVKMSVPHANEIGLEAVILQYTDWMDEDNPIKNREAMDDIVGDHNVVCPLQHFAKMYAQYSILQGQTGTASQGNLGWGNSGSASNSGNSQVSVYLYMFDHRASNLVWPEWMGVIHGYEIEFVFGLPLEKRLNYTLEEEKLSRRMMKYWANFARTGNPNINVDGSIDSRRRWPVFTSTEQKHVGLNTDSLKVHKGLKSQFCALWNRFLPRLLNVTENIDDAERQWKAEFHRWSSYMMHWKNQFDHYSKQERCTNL

SMILES	inhibition at 100 µM [1]	Activity (SH-SY5Y)	Activity (Bos taurus)	IC50 (Acetylcholinesterase [2])	IC50 (Cholinesterase)	Ratio IC50 [3]	Ki (Acetylcholinesterase [4])	Activity [5]
CCOC(=O)C1=C(C)Oc2nc3c(c(N)c2C1c1ccc(OC)cc1)CCCC3 (centres undefined)	90%	–	–	–	–	–	–	–
Cc1ccc(C2c3c(nc4c(c3N)CCCC4)Oc3ccc4ccccc4c32)cc1 (racemic)	–	<17%	inactive	43 nM	> 10000 nM	–	–	–
Nc1c2c(nc3c1C(c1ccc(O)cc1)c1c(ccc4ccccc14)O3)CCCC2 (racemic)	–	<17%	inactive	7 nM	> 10000 nM	4	5 nM	inactive
COc1ccc(C2c3c(nc4c(c3N)CCCC4)Oc3ccc4ccccc4c32)cc1 (racemic)	–	<17%	inactive	18 nM	> 10000 nM	–	–	–
COc1cccc(C2c3c(nc4c(c3N)CCCC4)Oc3ccc4ccccc4c32)c1 (racemic)	–	<17%	inactive	16 nM	> 10000 nM	–	–	–
COc1ccccc1C1c2c(nc3c(c2N)CCCC3)Oc2ccc3ccccc3c21 (racemic)	–	<17%	inactive	20 nM	> 10000 nM	–	–	–
COc1cc(C2c3c(nc4c(c3N)CCC4)Oc3ccc4ccccc4c32)ccc1O (racemic)	–	<17%	inactive	101 nM	> 10000 nM	–	–	–
COc1cc(C2c3c(nc4c(c3N)CCCC4)Oc3ccc4ccccc4c32)ccc1O (racemic)	–	<17%	inactive	28 nM	> 10000 nM	–	–	–
COc1ccc(C2c3c(nc4c(c3N)CCCC4)Oc3ccc4ccccc4c32)cc1OC (racemic)	–	<17%	inactive	26 nM	> 10000 nM	–	–	–
COc1cc(C2c3c(nc4c(c3N)CCCC4)Oc3ccc4ccccc4c32)cc(OC)c1OC (racemic)	–	<17%	inactive	26 nM	> 10000 nM	–	–	–
Nc1c2c(nc3c1C(c1ccc([N+](=O)[O-])cc1)c1c(ccc4ccccc14)O3)CCCC2 (racemic)	–	<17%	inactive	170 nM	> 10000 nM	–	–	–
